We go through one compound from PMC12263422, “Cryo-EM structure of the human THIK-1 K2P K^+ channel reveals a lower Y gate regulated by lipids and anesthetics” (Nature Structural & Molecular Biology, 2025).

“And” between values parts separate entries of the source, which are not always exact repeats. Equal values may be shown once. Read-outs that look alike come from different tables or passages of the source.

The target in assay [1] is T1, human K2P12.1 THIK-2 (THIK-2*) (Homo sapiens, UniProt Q9HB15, R11A/R12A/R14A/R15A/R16A).
T1 construct: expressed in transfected cells; host or cells: Xenopus oocytes (mRNA injection)
T1 sequence (Q9HB15 1-430 R11A/R12A/R14A/R15A/R16A): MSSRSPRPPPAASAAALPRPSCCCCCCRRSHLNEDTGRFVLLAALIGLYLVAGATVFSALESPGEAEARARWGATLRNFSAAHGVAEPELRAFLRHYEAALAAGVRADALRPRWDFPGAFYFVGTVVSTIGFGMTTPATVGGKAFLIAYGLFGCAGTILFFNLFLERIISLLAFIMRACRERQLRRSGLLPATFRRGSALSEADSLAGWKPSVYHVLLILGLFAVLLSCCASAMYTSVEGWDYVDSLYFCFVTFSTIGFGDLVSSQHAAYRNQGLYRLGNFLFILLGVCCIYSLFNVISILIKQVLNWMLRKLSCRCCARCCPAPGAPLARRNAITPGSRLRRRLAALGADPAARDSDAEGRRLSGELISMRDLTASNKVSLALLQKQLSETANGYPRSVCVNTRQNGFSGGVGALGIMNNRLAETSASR
In words: Inside-out excised patch recordings, oocytes, THIK-2* (ER-retention mutant). In kind it is cell-based. The following applies: for Normalized currents: THIK-2* (unstimulated). The text has this: (§1) Human K2P13.1 THIK-1 (GenBank accession number: NM_022054) and human K2P12.1 THIK-2 (NM_022055.1) were used in this study. For functional expression studies, the respective K^+ channel subtype coding sequences were subcloned into the oocyte expression vector pSGEM or the dual-purpose expression vector pFAW[41] and verified by sequencing. All mutant channels were obtained by site-directed mutagenesis and verified by sequencing. To increase surface expression and macroscopic currents, measurements of THIK-2 channels used a mutated ER retention motif, (R11A R12A R14A R15A R16A; THIK-2*)[20]. Vector DNA was linearized with NheI or MluI, and mRNA was synthesized in vitro using the SP6 or T7 AmpliCap Max High Yield Message Maker Kit (Cellscript, USA) or HiScribe T7 ARCA mRNA Kit (New England Biolabs).
Two-electrode voltage–clamp (TEVC) studies were performed in Xenopus oocytes. All animal use conformed to the Guide for the Care and Use of Laboratory Animals (NIH Publication 85–23), and all experiments using Xenopus toads were approved by the local ethics panels. Oocytes were stored at 17 °C in ND96 recording solution composed of (in mM): 96 NaCl, 2 KCl, 1.8 CaCl2, 1 MgCl2, 5 HEPES (pH 7.5 adjusted with NaOH and HCl), supplemented with Na-pyruvate (275 mg L^–1), theophylline (90 mg L^–1) and gentamicin (50 mg L^–1). Oocytes were injected with 1 ng mRNA for WT or mutant channels, and were incubated for 24–48 h at 17 °C. Two-electrode voltage clamp recordings were then performed as previously described[42],[43]. For macroscopic patch–clamp measurements, oocytes were obtained as described above incubated at 17 °C in a solution containing (mM): 54 NaCl, 30 KCl, 2.4 NaHCO3, 0.82 MgSO4 ×7 H2O, 0.41 CaCl2, 0.33 Ca(NO3)2 ×4 H2O and 7.5 TRIS (pH 7.4 adjusted with NaOH and HCl) for 1–4 days before use. Excised patch recordings in inside-out configuration conditions were performed at room temperature. Patch pipettes were made from thick-walled borosilicate glass GB 200TF-8P (Science Products), had resistances of 0.2–0.5 MΩ (tip diameter, 10–25 µm) and filled with a pipette solution (in mM): 120 KCl, 10 HEPES and 3.6 CaCl2 (pH 7.4 adjusted with KOH and HCl). Intracellular bath solutions and compounds were applied to the cytoplasmic side of excised patches for the various K^+ channels through a gravity flow multi-barrel pipette system. The intracellular solution had the following composition (in mM): 120 KCl, 10 HEPES, 2 EGTA and 1 pyrophosphate (pH adjusted with KOH and HCl). Currents were recorded with an EPC10 amplifier (HEKA Electronics) and sampled at 10 kHz or higher, with filtering set to 3 kHz (–3 dB) or higher, as appropriate for sampling rate. For measurements of GPCR activation, whole-cell currents were recorded for THIK-1 in transiently transfected HEK-293 cells. Cells were stimulated by a ramp protocol between −100 and +60 mV (holding potential, −80 mV). The pipette solution was composed of (in mM): 140 KCl, 2 MgCl2, 1 CaCl2, 2.5 EGTA and 10 HEPES (pH 7.3 adjusted with KOH and HCl). The extracellular bath solution had the following composition (in mM): 135 NaCl, 5 KCl, 2 MgCl2, 2 CaCl2, 10 glucose and 10 HEPES pH (pH 7.3 adjusted with NaOH and HCl). Oxotremorine M (Oxo-M) was added to extracellular bath solution to obtain the final concentration. Single-channel currents were recorded with an Axopatch 200B amplifier through a Digidata 1440A digitizer (Molecular Devices). Data were filtered at 2 kHz and recorded at a 200-kHz sampling rate with the program Clampex (Molecular Devices). Pipette solution and bath solution for cell-attached recordings contained (in mM): 140 KCl, 2 MgCl2, 1 CaCl2 and 10 HEPES (pH 7.4 adjusted with KOH and HCl). For inside-out recordings, the bath solution contained (in mM): 140 KCl, 2 MgCl2, 1 CaCl2 and 10 HEPES (pH 7.2 adjusted with KOH and HCl). All experiments were conducted at room temperature. […]

For another assay, the target named is T2, THIK-1 C135A (Homo sapiens, UniProt Q9HB14, C135A).
T2 construct: expressed in transfected cells; host or cells: Xenopus oocytes (mRNA injection)
T2 sequence (Q9HB14 1-408 C135A): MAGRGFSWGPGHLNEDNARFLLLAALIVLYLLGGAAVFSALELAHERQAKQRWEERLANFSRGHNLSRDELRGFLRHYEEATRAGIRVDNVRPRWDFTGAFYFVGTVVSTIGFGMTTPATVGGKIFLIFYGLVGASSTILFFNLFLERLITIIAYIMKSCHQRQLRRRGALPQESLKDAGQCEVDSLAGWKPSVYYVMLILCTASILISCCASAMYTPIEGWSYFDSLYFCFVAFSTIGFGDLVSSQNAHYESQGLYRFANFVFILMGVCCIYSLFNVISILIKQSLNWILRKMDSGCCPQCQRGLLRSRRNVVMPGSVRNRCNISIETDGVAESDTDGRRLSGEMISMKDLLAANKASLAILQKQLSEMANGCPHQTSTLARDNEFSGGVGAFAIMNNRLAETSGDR
In words: Inside-out excised patch recordings, oocytes, THIK-1 C135A mutant. As to conditions: read-out: TPenA IC50. Type of assay: cell-based.
Excerpt: as §1
Two-electrode voltage–clamp (TEVC) studies were performed in Xenopus oocytes. All animal use conformed to the Guide for the Care and Use of Laboratory Animals (NIH Publication 85–23), and all experiments using Xenopus toads were approved by the local ethics panels. Oocytes were stored at 17 °C in ND96 recording solution composed of (in mM): 96 NaCl, 2 KCl, 1.8 CaCl2, 1 MgCl2, 5 HEPES (pH 7.5 adjusted with NaOH and HCl), supplemented with Na-pyruvate (275 mg L^–1), theophylline (90 mg L^–1) and gentamicin (50 mg L^–1). Oocytes were injected with 1 ng mRNA for WT or mutant channels, and were incubated for 24–48 h at 17 °C. Two-electrode voltage clamp recordings were then performed as previously described[42],[43]. […] Currents were recorded with an EPC10 amplifier (HEKA Electronics) and sampled at 10 kHz or higher, with filtering set to 3 kHz (–3 dB) or higher, as appropriate for sampling rate. For measurements of GPCR activation, whole-cell currents were recorded for THIK-1 in transiently transfected HEK-293 cells. […] Single-channel currents were recorded with an Axopatch 200B amplifier through a Digidata 1440A digitizer (Molecular Devices). Data were filtered at 2 kHz and recorded at a 200-kHz sampling rate with the program Clampex (Molecular Devices). […]

Setting [2] is: THIK-2* WT (unstimulated), mean.
Where [3] appears, read: THIK-2* WT, individual recordings.

For `CCCCC[N+](CCCCC)(CCCCC)CCCCC` [TPenA, tetrapentylammonium], the Normalized currents in assay [1] (0.1 µM TPenA) is recorded as 0.99; in assay [1] (1 µM TPenA), 0.98; in assay [1] (10 µM TPenA), 0.94; in assay [1] (100 µM TPenA), 0.71; in assay [1] (1000 µM TPenA) it was 0.41; in assay [1] (5000 µM TPenA), 0.35. For the same compound, the “τ of 1 mM TPenA block” value in assay [1] (setting [2]) is 3.83 s; in assay [1] (setting [3]), 5.710 s and 3.800 s and 2.660 s and 5.630 s and 4.260 s and 2.170 s and 2.560 s. Moreover, the “τ of 1 mM TPenA release” value in assay [1] (setting [2]) is 3.40 s; in assay [1] (setting [3]), 4.580 s and 3.250 s and 3.550 s and 3.310 s and 3.680 s and 2.030 s. Also, the IC50 at THIK-1 C135A (C135A mutant) was 1060 µM; at THIK-1 C135A (THIK-1 C135A, individual recordings) it was 1250 µM and 1270 µM and 1530 µM and 1180 µM and 748 µM and 1440 µM and 621 µM and 466 µM; at THIK-1 C135A (THIK-1 C135A, mean) it was 1060 µM.

Broadly, the IC50 is the point on the concentration scale where inhibition reaches its midpoint.
